Measured values taken from patent publication US20110251158A1, “FULLERENE THERAPIES FOR INFLAMMATION AND INHIBITION OF BUILD-UP OF ARTERIAL PLAQUE” (Luna Innovations Incorporated, priority 2008, published 2011).

Columns and labels:
Assay type in all cases: cell-based, human
FcεRI activated genes = experiment: Gene microarray of FcεRI-activated MC
Description: (§1) Mast cells (1×10^7 cell/condition; each condition performed in triplicate) were incubated with or without fullerene derivatives as above and incubated with or without anti-FcεRI antibodies for 10 minutes, supernatants were removed (to remove pre-formed mediators), and fresh warm medium containing anti-FcεRI antibodies (14 ml) added for 2 hours. Cells were centrifuged, the supernatant and the pellet immediately frozen and microarray performed using the Human Whole Genome OneArray™ gene expression profiling service (Phalanx Biotech Group). Separate samples, assayed in parallel were lysed and protein expression analyzed by Western blotting or flow cytometry (CD45) as described in Kepley, C. L., Pfeiffer, J., Wilson, B. W., Schwartz, L. B., and Oliver, J. M. J. Leukocyte Biol. 64, 474-483 (1998).
For microarray RNA was isolated using the Ambion MessageAmp aRNA kit; all samples passed the internal quality control checks. For hybridization each sample was run in triplicate. Optical density was measured by NanoDrop ND-1000. The ratio of absorbance at 260 nm and 280 nm provides an estimate of RNA purity. […] The reactive amino group of 5-(3-aminoallyl)-UTP/5-(3-aminoallyl)-dUTP was used to conjugate the purified aRNA/cDNA with the NHS-CyDye. Labeling efficiency was calculated by the concentration of CyDye and aRNA/cDNA which was above 10. For hybridization 10 μg Cy5-labeled aRNA was utilized by the Phalanx Hybridization Protocol Array Version HOA 4.3.
Pearson correlation tables (R values) for each technical repeat were calculated from raw log 2 intensity (R) and normalized log 2 intensity (N) values and compared to each other. Only probes with P value (detected) less than 0.05 were included in the calculation. […] Greater than 95% of the samples had R values of 0.8 or greater indicating strong correlation between the two parameters.
(§2) In order to examine the genes most affected by fullerene derivative preincubation the resulting values were sorted and filtered the following way. First, the mean (±SD) of the six values from each condition for each of the 30,970 genes was calculated. […]

[1] = system: E74-like factor 2 (ELF-2); experiment: ELF-2 gene expression (microarray) in MC; settings: gene level
Description: as §1
as §2, with “calculated. Second, only normalized value intensities of >100 were included so that follow up detection of protein levels would be more likely to be successful.” for “calculated.”

[2] = system: Peripheral blood basophils (PBB); experiment: Anti-IgE-induced histamine release (degranulation) from PBB
Description: PBB were obtained from two sources: donors recruited under an IRB-approved protocol after informed consent or from leukopheresis packs obtained from the Johns Hopkins Hemapheresis Center. PBB were purified to ≧99% purity as described in Vonakis, B. M., Gibbons S Jr, Sora, R., Langdon, J. M., and MacDonald, S. M. J. Allergy Clin. Immunol. 108, 822-831 (2001), and Miura, K., Saini, S. S., Gauvreau, G., and MacGlashan, D. W., Jr. J. Immunol. 167, 2282-2291 (2001). Purified PBB were incubated overnight (20 hours) with a fullerene derivative (5 μg/ml) or vehicle control and a minimal (non-stimulatory) concentration of IL-3 (2 pg/ml) to prevent apoptosis. The next day, cells were washed and aliquoted for the histamine release assay by treatment with 0.1 mg/ml of goat polyclonal anti-IgE, buffer alone (spontaneous release) or perchloric acid (total histamine determination). Histamine was quantified in cell free supernatants using automated fluorimetry in duplicate. In a second set of experiments the two fullerene derivatives (at 5 μg/ml) were incubated with PBB for 20 hours, washed cells stimulated with 15 ng/ml anti-IgE for 18 hours in duplicate and supernatants collected for quantification of IL-13 by in-house ELISA. The optimal doses of anti-IgE are chosen for activation of PBB.

ROS = experiment: FcεRI-induced ROS (DCF) in MC; settings: 10 μg/mL overnight; anti-FcεRI 1 μg/mL
Description: MC were pre-treated with or without fullerene derivatives as above, washed with Tyrodes buffer supplemented with BSA, and incubated with Fura-2 AM (2 μM) for 30 minutes at 37° C. Cells were washed, stimulated with anti-FcεRI, and calcium flux measured in real time on a Perkin Elmer LS55 Spectrofluorometer. For ROS production, cells were exposed to fullerene derivatives as above. After washing, cells were re-suspended in X-Vivo medium containing 5 μM dichlorodihydrofluorescein (DCF) at 37° C. for 30 minutes, washed, and activation-induced changes in mean fluorescence was measured with excitation at 502 nm and emission at 523 nm for 15 minutes (19). The data is presented as fluorescence intensity of the 523 nm emission over time. All experiments were performed in triplicate and degranulation was measured in parallel.
Cells were incubated with or without fullerene derivative (10 μg/mL) overnight. The next day cells were challenged with anti-FcεRI (3B4; 1 μg/mL) and calcium stores release was determined by the 340/380 nm ratio (FIGS. 11A and 11B) and ROS measured by DCF detection at 523 nm (FIGS. 11C and 11D). FIGS. 11A and 11C contain cells incubated with the TGA fullerene derivative, and FIGS. 11B and 11D contain cells incubated with the Inos fullerene derivative (10 μg/mL). […]

IC50 (degranulation) ([2]; PBB, maximum inhibition set to 100%): 9.9 µg/mL
Substance: C70-tetraglycolic acid [TGA]
genes whose FcεRI-induced activation was reduced (FcεRI activated genes): over 1000 | genes decreased at least 20% compared to non treated cells (FcεRI activated genes; 2 hours FcεRI activation): 2,603 | genes with greater than 50% inhibition (FcεRI activated genes; 2 hours FcεRI activation): 515 | ELF-2 downregulated [1]: 47% | Mean % Inhibition of Histamine Release ([2]; 5 μg/ml FD vs vehicle control, listed as C70-TGA): 15.8% | FD + anti-IgE (mean ± SEM), histamine release ([2]; 5 μg/ml FD, 20 hours, anti-IgE): 39.4 ± 2.3 | maximal inhibition of anti-IgE-induced histamine release ([2]; 50 µg/mL dose, mean±SEM, n=2-3): 37.8±16.25% | FcεRI-induced ROS (ROS): inhibited
